Test results: patent publication US20250333418A1, “PURINE COMPOUNDS, COMPOSITIONS COMPRISING THEM AND USES THEREOF” (Novo Nordisk A/S, priority 2022, published 2025)

Columns and labels:
[1] = molecular target: T1, human CB1 receptor (Homo sapiens, UniProt P21554); assay: bioSensAll β-arrestin2 plasma membrane translocation (+GRK2) BRET biosensor assay in HEK293 cells transfected with hCB1; test compound added before EC75-80 of agonist CP55,940 (100 nM); format: cell-based; details: βArrestin2 (+GRK2) BRET biosensor, vs CP55,940 100 nM (EC75-80), read-out: CB1 wt βarr2 IC50
T1 construct: expressed in transfected cells; host or cells: HEK293
T1 sequence (P21554 whole entry): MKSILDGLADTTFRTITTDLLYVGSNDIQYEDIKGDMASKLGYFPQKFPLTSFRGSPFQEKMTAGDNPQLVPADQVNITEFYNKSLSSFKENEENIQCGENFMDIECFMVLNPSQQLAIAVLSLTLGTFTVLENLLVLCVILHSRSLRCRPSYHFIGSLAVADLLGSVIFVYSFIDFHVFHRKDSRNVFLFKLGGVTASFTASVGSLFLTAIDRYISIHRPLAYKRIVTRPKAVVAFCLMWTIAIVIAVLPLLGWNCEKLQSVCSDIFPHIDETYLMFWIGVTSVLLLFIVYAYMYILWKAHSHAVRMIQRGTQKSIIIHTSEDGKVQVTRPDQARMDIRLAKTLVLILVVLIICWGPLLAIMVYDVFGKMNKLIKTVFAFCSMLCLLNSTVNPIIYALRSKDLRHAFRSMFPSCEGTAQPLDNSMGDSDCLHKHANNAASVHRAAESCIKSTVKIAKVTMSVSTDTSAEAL
Outline: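 HEK293 cells co-transfected with hCB1 and β-arrestin2 PM-translocation BRET biosensor (+GRK2); 48 h post-transfection in HBSS, test compound (0–600 nM, 12 points) added 3–5 min before CP55,940 at 100 nM (EC75-80). Overnight incubation at 37 °C; BRET (515/400 nm) read after 2 µM e-coelenterazine Prolume Purple, standardized to controls.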

[2] = molecular target: T1, human CB1 receptor; assay: bioSensAll GAPL-Gi2 BRET biosensor assay in HEK293 cells transfected with hCB1; test compound added before EC75-80 of agonist CP55,940 (0.1 nM); format: cell-based; details: vs CP55,940 0.1 nM (EC75-80), read-out: CB1 wt Gi2 IC50
Outline: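 Test compounds at 12 doses up to 600 nM preceded a 0.1 nM CP55,940 challenge in hCB1/GAPL-Gi2 HEK293 cells. After overnight 37° C incubation, methoxy e-coelenterazine (2 µM final) was added and the 515/400 nm BRET ratio normalized to positive and negative controls.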

| Structure (SMILES) | IC50 [1] | IC50 [2] |
| --- | --- | --- |
| CCNC1(C(N)=O)CCN(c2nc(N3CCC(CO)C3)nc3c2nc(-c2ccccc2Cl)n3-c2ccc(Cl)cc2)CC1 (centres unmarked) [Compound 153] | 1.29 nM | 0.503 nM |
| Cc1ncccc1-c1nc2c(N3CCC(C)(C(N)=O)CC3)nc(OCC(C)(C)O)nc2n1-c1ccc(Cl)cc1 [Compound 104, 1-[9-(4-chlorophenyl)-2-(2-hydroxy-2-methyl-propoxy)-8-(2-methyl-3-pyridyl)purin-6-yl]-4-methyl-piperidine-4-carboxamide] | > 5000 nM | 48.8 nM |
| CN(CCO)c1nc(OCC(C)(C)O)nc2c1nc(-c1ccccc1Cl)n2-c1ccc(Cl)cc1 [Compound 97] | 123 nM | 25.8 nM |
| CC1(C(N)=O)CCN(c2nc(OC[C@@H]3CCCN3)nc3c2nc(-c2ccccc2Cl)n3-c2ccc(Cl)cc2)CC1 [Compound 160, 1-[8-(2-chlorophenyl)-9-(4-chlorophenyl)-2-((2S)-pyrrolidinemethoxy)-purin-6-yl]-4-methyl-piperidine-4-carboxamide] | 21.7 nM | 0.868 nM |
| CC1(C(N)=O)CCN(c2nc(-n3cnc(CCO)c3)nc3c2nc(-c2ccccc2Cl)n3-c2ccc(Cl)cc2)CC1 [Compound 47, 1-[8-(2-chlorophenyl)-9-(4-chlorophenyl)-2-[4-(2-hydroxyethyl)imidazol-1-yl]purin-6-yl]-4-methyl-piperidine-4-carboxamide] | 6.65 nM | 1.87 nM |
| CC(C)(O)COc1nc(N2CC(C)(C#N)C2)c2nc(-c3ccc(C#N)nc3)n(-c3ccc(Cl)cc3)c2n1 [Compound 113, 5-[9-(4-chlorophenyl)-6-(3-cyano-3-methyl-azetidin-1-yl)-2-(2-hydroxy-2-methyl-propoxy)purin-8-yl]pyridine-2-carbonitrile] | 15.5 nM | 7.11 nM |
| CC(CO)Oc1nc(N2CCC(C)(C(N)=O)CC2)c2nc(-c3ccccc3Cl)n(-c3ccc(Cl)cc3)c2n1 (single isomer, unassigned) [Compound 7, 1-[8-(2-chlorophenyl)-9-(4-chlorophenyl)-2-(2-hydroxy-1-methyl-ethoxy)purin-6-yl]-4-methyl-piperidine-4-carboxamide] | 3.45 nM | 0.417 nM |
| COCCOc1nc(N2CCC(C(F)(F)F)CC2)c2nc(-c3ccccc3Cl)n(-c3ccc(Cl)cc3)c2n1 [Compound 27, 8-(2-chlorophenyl)-9-(4-chlorophenyl)-2-(2-methoxyethoxy)-6-[4-(trifluoromethyl)-1-piperidyl]purine] | 10.2 nM | 1.5 nM |
| CS(=O)(=O)CCNc1nc(N2CCC(C(F)(F)F)CC2)c2nc(-c3ccccc3Cl)n(-c3ccc(Cl)cc3)c2n1 [Compound 28, 8-(2-chlorophenyl)-9-(4-chlorophenyl)-N-(2-methylsulfonylethyl)-6-[4-(trifluoromethyl)-1-piperidyl]purin-2-amine] | 12.2 nM | 1.02 nM |
| CC(C)(O)COc1nc(N2CCC(C(N)=O)CC2)c2nc(-c3ccccc3Cl)n(-c3ccc(Cl)cc3)c2n1 [Compound 198] | 31.5 nM | 7.69 nM |
| NC(=O)C1CN(c2nc(N3CCC[C@H]3CO)nc3c2nc(-c2ccccc2Cl)n3-c2ccc(Cl)cc2)C1 [Compound 237] | 1.93 nM | 0.61 nM |
| CC(C)(O)COc1nc(N2CC(C)(O)C2)c2nc(-c3ccc(C#N)nc3)n(-c3ccc(Cl)cc3)c2n1 [Compound 112, 5-[9-(4-chlorophenyl)-6-(3-hydroxy-3-methyl-azetidin-1-yl)-2-(2-hydroxy-2-methyl-propoxy)purin-8-yl]pyridine-2-carbonitrile] | 105 nM | 88.3 nM |
| CCNC1(C(N)=O)CCN(c2nc(N3CCC[C@H]3CO)nc3c2nc(-c2ccccc2Cl)n3-c2ccc(Cl)cc2)CC1 [Compound 143] | 1.59 nM | 0.837 nM |
